From PubChem BioAssay AID256 (DTP/NCI, 2004)
“And” between values parts separate entries of the source, which are not always exact repeats. Equal entries are not always repeated. Inconclusive results and toxic doses are left out.

System: CD2F1 mice, L1210 leukemia ip, survival T/C
Experiment: NCI In Vivo Anticancer Drug Screen. Data for tumor model L1210 Leukemia (intraperitoneal) in CD2F1 (CDF1) mice
Settings: endpoint: mean survival time, higher = longer survival
Method in brief: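 Each value reflects a quotient of treated over vehicle control outcomes in mice with a transplanted tumor.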

[1] = dose: 100.0 mg/kg/injection, schedule: Q01DX001 (ip), vehicle: saline with Tween-80
[2] = dose: 100.0 mg/kg/injection, schedule: Q04DX003 (ip), vehicle: saline
[3] = dose: 200.0 mg/kg/injection, schedule: Q04DX003 (ip), vehicle: saline
[4] = dose: 400.0 mg/kg/injection, schedule: Q04DX003 (ip), vehicle: saline
[5] = dose: 50.0 mg/kg/injection, schedule: Q01DX009 (ip), vehicle: saline
[6] = dose: 100.0 mg/kg/injection, schedule: Q01DX009 (ip), vehicle: saline
[7] = dose: 100.0 mg/kg/injection, schedule: Q01DX009 (ip), vehicle: saline with Tween-80
[8] = dose: 200.0 mg/kg/injection, schedule: Q01DX009 (ip), vehicle: saline with Tween-80
[9] = dose: 200.0 mg/kg/injection, schedule: Q01DX009 (ip), vehicle: saline
[10] = dose: 200.0 mg/kg/injection, schedule: Q04DX002 (ip), vehicle: saline with Tween-80

How did the T/C (dose: 75.0 mg/kg/injection, schedule: Q01DX001 (ip), vehicle: other) turn out when `Cc1cc(C)c2ccc(Cl)nc2n1` was run?
The T/C was 100 % of control.

Which T/C (dose: 25.0 mg/kg/injection, schedule: Q01DX001 (ip), vehicle: saline with Tween-80) does the source give for `Oc1c(F)c(F)c(-c2c(F)ccc(F)c2F)c(F)c1F` here?
Its T/C is 92 % of control.

What about the T/C (dose: 50.0 mg/kg/injection, schedule: Q01DX001 (ip), vehicle: saline with Tween-80) of the same compound?
Its T/C is 102 % of control.

What about the T/C [1] of the same compound?
Its T/C is 94 % of control.

Which results are given for `C[N+](C)(C)CCP(=O)([O-])O`?
T/C [2]: 98 % of control; T/C [3]: 101 % of control; T/C [4]: 101 % of control

For `CC(=O)N(O)CCCCCNC(=O)CCC(=O)N(O)CCCCCNC(=O)CCC(=O)N(O)CCCCCN`, which T/C (dose: 125.0 mg/kg/injection, schedule: Q03HX024 (ip), vehicle: water) is on record?
Its T/C is 102 % of control.

And the T/C (dose: 188.0 mg/kg/injection, schedule: Q03HX024 (ip), vehicle: water)?
The T/C was 97 % of control.

What about the T/C (dose: 280.0 mg/kg/injection, schedule: Q03HX024 (ip), vehicle: water) of the same compound?
Its T/C is 104 % of control.

What does the source list for `CNC(=O)Nc1nc2ccccc2[nH]1`?
T/C (dose: 50.0 mg/kg/injection, schedule: Q04DX003 (ip), vehicle: Klucel (hydroxypropylcellulose) (HPC)): 101 % of control; T/C (dose: 100.0 mg/kg/injection, schedule: Q04DX003 (ip), vehicle: Klucel (hydroxypropylcellulose) (HPC)): 102 % of control; T/C (dose: 200.0 mg/kg/injection, schedule: Q04DX003 (ip), vehicle: Klucel (hydroxypropylcellulose) (HPC)): 104 % of control; T/C (dose: 400.0 mg/kg/injection, schedule: Q04DX003 (ip), vehicle: Klucel (hydroxypropylcellulose) (HPC)): 102 % of control

`COc1cccc2c1C(=O)c1c(O)c3c(c(O)c1C2=O)CC(O)(C(C)=O)CC3OC1CC(N)C(O)C(C)O1` (configuration not stated) was tested. Which T/C (dose: 0.25 mg/kg/injection, schedule: Q01DX001 (ip), vehicle: saline) did it give?
Its T/C is 112 % of control.

What about the T/C (dose: 0.5 mg/kg/injection, schedule: Q01DX001 (ip), vehicle: saline) of the same compound?
The T/C was 109 % of control.

And the T/C (dose: 0.63 mg/kg/injection, schedule: Q01DX009 (ip), vehicle: water)?
Its T/C is 105 % of control.

And the T/C (dose: 1.0 mg/kg/injection, schedule: Q01DX001 (ip), vehicle: saline)?
Its T/C is 115 % of control.

And the T/C (dose: 1.25 mg/kg/injection, schedule: Q01DX009 (ip), vehicle: water)?
The T/C was 108 % of control.

And the T/C (dose: 2.0 mg/kg/injection, schedule: Q01DX001 (ip), vehicle: saline)?
The T/C was 121 % of control.

What about the T/C (dose: 2.5 mg/kg/injection, schedule: Q01DX009 (ip), vehicle: water) of the same compound?
The T/C was 115 % of control and 105 % of control.

What about the T/C (dose: 5.0 mg/kg/injection, schedule: Q01DX009 (ip), vehicle: water) of the same compound?
The T/C was 105 % of control.

What about the T/C (dose: 10.0 mg/kg/injection, schedule: Q01DX009 (ip), vehicle: water) of the same compound?
The T/C was 117 % of control.

What about the T/C (dose: 20.0 mg/kg/injection, schedule: Q01DX009 (ip), vehicle: water) of the same compound?
Its T/C is 117 % of control and 105 % of control.

What about the T/C (dose: 40.0 mg/kg/injection, schedule: Q01DX009 (ip), vehicle: water) of the same compound?
Its T/C is 117 % of control.

What about the T/C (dose: 80.0 mg/kg/injection, schedule: Q01DX009 (ip), vehicle: water) of the same compound?
Its T/C is 105 % of control.

How did the T/C [2] turn out when `CC(=O)NCCNC(C)=O` was run?
Its T/C is 91 % of control.

What about the T/C [3] of the same compound?
Its T/C is 100 % of control.

What about the T/C [4] of the same compound?
Its T/C is 91 % of control.

With `NC1(C(=O)O)CCCC1.[Zn+2]` as the compound, how does the T/C (dose: 100.0 mg/kg/injection, schedule: Q01DX001 (ip), vehicle: saline) read?
The T/C was 100 % of control.

What about the T/C (dose: 400.0 mg/kg/injection, schedule: Q01DX001 (ip), vehicle: saline) of the same compound?
The T/C was 120 % of control.

Which T/C (dose: 0.78 mg/kg/injection, schedule: Q01DX009 (ip), vehicle: saline with Tween-80) does the source give for `CCCCN1C(=O)C=CC1=O` here?
Its T/C is 94 % of control.

What about the T/C (dose: 1.56 mg/kg/injection, schedule: Q01DX009 (ip), vehicle: saline with Tween-80) of the same compound?
Its T/C is 105 % of control.

And the T/C (dose: 3.12 mg/kg/injection, schedule: Q01DX009 (ip), vehicle: saline with Tween-80)?
Its T/C is 91 % of control.

What does the source list for `CCOC(=O)Nc1cc(NCc2ccccc2)c([N+](=O)[O-])c(N)n1`?
T/C (dose: 12.5 mg/kg/injection, schedule: Q01DX001 (ip), vehicle: Klucel (hydroxypropylcellulose) (HPC)): 109 % of control; T/C (dose: 25.0 mg/kg/injection, schedule: Q01DX001 (ip), vehicle: Klucel (hydroxypropylcellulose) (HPC)): 101 % of control; T/C (dose: 50.0 mg/kg/injection, schedule: Q01DX001 (ip), vehicle: Klucel (hydroxypropylcellulose) (HPC)): 91 % of control

Which T/C (dose: 25.0 mg/kg/injection, schedule: Q01DX009 (ip), vehicle: saline) does the source give for `CCN(CC)c1cc(Cl)ccc1Cl` here?
Its T/C is 102 % of control.

And the T/C (dose: 25.0 mg/kg/injection, schedule: Q04DX002 (ip), vehicle: saline with Tween-80)?
The T/C was 91 % of control.

And the T/C [5]?
The T/C was 101 % of control.

And the T/C (dose: 50.0 mg/kg/injection, schedule: Q04DX002 (ip), vehicle: saline with Tween-80)?
Its T/C is 95 % of control.

What about the T/C [1] of the same compound?
Its T/C is 98 % of control.

What about the T/C [6] of the same compound?
Its T/C is 101 % of control.

With `Nc1nc([S-])c2[nH]cnc2n1.[Cl-].[Cl-].[H+].[Pd+2].[Pd+2].[Pd+2]` as the compound, how does the T/C (dose: 3.13 mg/kg/injection, schedule: Q04DX003 (ip), vehicle: saline with Tween-80) read?
The T/C was 124 % of control.

And the T/C (dose: 6.25 mg/kg/injection, schedule: Q04DX003 (ip), vehicle: saline with Tween-80)?
The T/C was 164 % of control.

And the T/C (dose: 100.0 mg/kg/injection, schedule: Q04DX003 (ip), vehicle: suspension in saline)?
The T/C was 114 % of control and 91 % of control.

Which results are given for `O=Cc1ccc(C(=O)O)cc1`?
T/C [7]: 95 % of control; T/C [8]: 98 % of control; T/C (dose: 400.0 mg/kg/injection, schedule: Q01DX009 (ip), vehicle: saline with Tween-80): 101 % of control

How did the T/C (dose: 75.0 mg/kg/injection, schedule: Q01DX001 (ip), vehicle: saline) turn out when `Nc1nc(N)c2c(n1)CN(c1ccc(Cl)cc1)C2` was run?
The T/C was 104 % of control.

And the T/C (dose: 150.0 mg/kg/injection, schedule: Q01DX001 (ip), vehicle: saline)?
The T/C was 96 % of control.

What about the T/C (dose: 300.0 mg/kg/injection, schedule: Q01DX001 (ip), vehicle: saline) of the same compound?
Its T/C is 98 % of control.

Which T/C [6] does the source give for `CCOC(=O)CCC(=O)CC(O)(C(F)(F)F)C(F)(F)Cl` (configuration not stated) here?
The T/C was 104 % of control.

What about the T/C (dose: 100.0 mg/kg/injection, schedule: Q04DX003 (ip), vehicle: saline with Tween-80) of the same compound?
Its T/C is 86 % of control.

What about the T/C [9] of the same compound?
Its T/C is 98 % of control.

What about the T/C (dose: 200.0 mg/kg/injection, schedule: Q04DX003 (ip), vehicle: saline with Tween-80) of the same compound?
The T/C was 103 % of control.

And the T/C (dose: 400.0 mg/kg/injection, schedule: Q01DX009 (ip), vehicle: saline)?
Its T/C is 107 % of control.

And the T/C (dose: 400.0 mg/kg/injection, schedule: Q04DX003 (ip), vehicle: saline with Tween-80)?
Its T/C is 96 % of control.

Which results are given for `CCCN(CCC)CC(C)O` (configuration not stated)?
T/C [5]: 95 % of control; T/C [6]: 101 % of control; T/C [9]: 97 % of control

`O.O=S(=O)(O)O.[Co+3].[NH2-].[NH2-].[NH2-].[NH2-].[NH2-]` was tested. Which T/C [10] did it give?
The T/C was 123 % of control.

With `CC(C)C1OCC(C)(C)C(c2ccccc2)O1` (configuration not stated) as the compound, how does the T/C (dose: 50.0 mg/kg/injection, schedule: Q04DX002 (ip), vehicle: saline) read?
Its T/C is 93 % of control.

What about the T/C (dose: 100.0 mg/kg/injection, schedule: Q04DX002 (ip), vehicle: saline) of the same compound?
The T/C was 96 % of control.

And the T/C (dose: 200.0 mg/kg/injection, schedule: Q04DX002 (ip), vehicle: saline)?
The T/C was 110 % of control.

What does the source list for `CC(=O)Nc1ccc(/C=C2\N=C(c3cccc([N+](=O)[O-])c3)OC2=O)cc1`?
T/C (dose: 100.0 mg/kg/injection, schedule: Q04DX002 (ip), vehicle: saline with Tween-80): 100 % of control; T/C [10]: 100 % of control; T/C (dose: 400.0 mg/kg/injection, schedule: Q04DX002 (ip), vehicle: saline with Tween-80): 91 % of control

What does the source list for `c1ccc(-c2csc3c4ccccc4c4ccccc4[n+]23)cc1`?
T/C (dose: 0.5 mg/kg/injection, schedule: Q01DX009 (ip), vehicle: saline): 104 % of control; T/C (dose: 1.0 mg/kg/injection, schedule: Q01DX009 (ip), vehicle: saline): 112 % of control; T/C (dose: 2.0 mg/kg/injection, schedule: Q01DX009 (ip), vehicle: saline): 112 % of control; T/C (dose: 4.0 mg/kg/injection, schedule: Q01DX009 (ip), vehicle: saline): 106 % of control; T/C (dose: 8.0 mg/kg/injection, schedule: Q01DX009 (ip), vehicle: saline): 101 % of control

For `CS/C([S-])=N/[NH-].CS/C([S-])=N/[NH-].[Ni]`, which T/C (dose: 3.13 mg/kg/injection, schedule: Q01DX009 (ip), vehicle: saline with Tween-80) is on record?
Its T/C is 97 % of control.

What about the T/C (dose: 12.5 mg/kg/injection, schedule: Q01DX001 (ip), vehicle: saline with Tween-80) of the same compound?
The T/C was 102 % of control.

Which results are given for `COC(=O)C(NC(=O)CCNC(=O)OCc1ccccc1)C(C)C` (configuration not stated)?
T/C [7]: 95 % of control; T/C [8]: 101 % of control

How did the T/C (dose: 25.0 mg/kg/injection, schedule: Q01DX001 (ip), vehicle: other) turn out when `CN(C)P(=O)(OCCCOCc1ccccc1)N(CCCl)CCCl` (configuration not stated) was run?
The T/C was 93 % of control.

What about the T/C (dose: 50.0 mg/kg/injection, schedule: Q01DX001 (ip), vehicle: other) of the same compound?
The T/C was 101 % of control.

What about the T/C (dose: 100.0 mg/kg/injection, schedule: Q01DX001 (ip), vehicle: other) of the same compound?
The T/C was 91 % of control.

And the T/C (dose: 200.0 mg/kg/injection, schedule: Q01DX001 (ip), vehicle: other)?
The T/C was 90 % of control.

What about the T/C (dose: 400.0 mg/kg/injection, schedule: Q01DX001 (ip), vehicle: other) of the same compound?
The T/C was 87 % of control.
